What was measured:
[1] = target: T1, EGFR with insertion SVD between D770 and N771 (mutEGFR D770_N771insSVD) (Homo sapiens, UniProt P00533, DUP768-770); assay: Exon20-Mutant-EGFR(D770_N771insSVD) kinase assay (TR-FRET); format: biochemical; conditions: 2 mM ATP, Table 2
T1 construct: amino acids R669 to A1210; made in house; host or cells: Sf9 insect cells (baculovirus)

Bub1 = target: T2, Bub1 (Homo sapiens, UniProt O43683); assay: Bub1 high ATP kinase assay (TR-FRET); format: biochemical; conditions: Bub1 high ATP (2 mM) IC50, TR-FRET, 2 mM ATP; Table 3
T2 construct: catalytic domain of human Bub1 (amino acids 704-1085); His6 (N); made in house; host or cells: insect cells (Hi5)
Outline: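 Enzyme was His6-tagged human Bub1 catalytic domain (aa 704-1085) from Hi5 insect cells, typically about 200 ng/ml, with a biotinylated peptide substrate at high ATP. Reaction ran 60 min at 22 °C, then was stopped with EDTA. Phosphopeptide was detected by TR-FRET (anti-phosphoserine antibody, Eu-labelled anti-mouse IgG, streptavidin-XL665), read as the 665/620 nm emission ratio.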

[2] = target: Ba/F3-EGFR-D770_N771insSVD cells (Homo sapiens, UniProt P00533, DUP768-770, cells depend on it); assay: Ba/F3 cell survival assay, EGFR D770_N771insSVD; format: cell-based; conditions: Cell Titer-Glo, 48 h, without IL-3; Table 4; read-out: BA/F3 (insSVD) IC50
Ba/F3-EGFR-WT cells = Ba/F3-EGFR-WT cells (Homo sapiens, UniProt P00533); assay: Ba/F3 cell survival assay, wild type EGFR; format: cell-based; conditions: Cell Titer-Glo, 48 h, with 10 ng/mL EGF; Table 4; read-out: BA/F3 (wild type) IC50
Sequence of Ba/F3-EGFR-WT cells (P00533 whole entry, looked up, change not shown): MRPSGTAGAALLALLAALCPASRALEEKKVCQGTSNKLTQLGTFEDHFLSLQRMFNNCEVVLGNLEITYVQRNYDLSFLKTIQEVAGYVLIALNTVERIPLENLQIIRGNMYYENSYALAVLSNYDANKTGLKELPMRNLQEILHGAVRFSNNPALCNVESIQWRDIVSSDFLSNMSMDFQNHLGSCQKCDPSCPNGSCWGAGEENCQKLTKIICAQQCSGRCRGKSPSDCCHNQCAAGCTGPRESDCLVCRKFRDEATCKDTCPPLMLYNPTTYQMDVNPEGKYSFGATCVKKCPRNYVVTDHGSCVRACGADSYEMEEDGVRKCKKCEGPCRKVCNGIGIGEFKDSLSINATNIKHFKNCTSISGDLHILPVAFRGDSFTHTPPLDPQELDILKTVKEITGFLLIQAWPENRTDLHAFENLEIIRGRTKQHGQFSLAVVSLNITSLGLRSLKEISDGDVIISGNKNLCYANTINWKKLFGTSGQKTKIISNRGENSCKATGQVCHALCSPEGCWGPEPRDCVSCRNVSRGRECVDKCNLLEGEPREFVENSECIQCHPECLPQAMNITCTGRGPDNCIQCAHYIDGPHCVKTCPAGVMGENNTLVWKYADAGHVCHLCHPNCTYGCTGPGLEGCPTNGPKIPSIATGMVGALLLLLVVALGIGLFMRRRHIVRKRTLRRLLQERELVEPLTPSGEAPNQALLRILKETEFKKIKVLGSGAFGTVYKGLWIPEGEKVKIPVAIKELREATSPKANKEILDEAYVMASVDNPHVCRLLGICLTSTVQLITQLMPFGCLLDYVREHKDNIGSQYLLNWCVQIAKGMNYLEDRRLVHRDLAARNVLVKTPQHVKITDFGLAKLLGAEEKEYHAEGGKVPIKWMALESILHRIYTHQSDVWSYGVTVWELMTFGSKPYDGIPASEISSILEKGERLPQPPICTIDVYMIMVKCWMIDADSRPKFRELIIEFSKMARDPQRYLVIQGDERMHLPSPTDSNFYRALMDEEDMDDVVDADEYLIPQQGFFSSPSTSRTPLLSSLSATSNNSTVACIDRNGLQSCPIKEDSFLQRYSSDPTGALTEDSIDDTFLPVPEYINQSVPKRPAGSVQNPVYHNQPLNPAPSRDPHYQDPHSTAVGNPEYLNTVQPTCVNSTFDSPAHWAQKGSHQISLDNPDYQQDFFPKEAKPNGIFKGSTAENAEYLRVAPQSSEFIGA

T1 sequence (P00533 other isoform, or with tags, fused parts or gaps DUP768-770): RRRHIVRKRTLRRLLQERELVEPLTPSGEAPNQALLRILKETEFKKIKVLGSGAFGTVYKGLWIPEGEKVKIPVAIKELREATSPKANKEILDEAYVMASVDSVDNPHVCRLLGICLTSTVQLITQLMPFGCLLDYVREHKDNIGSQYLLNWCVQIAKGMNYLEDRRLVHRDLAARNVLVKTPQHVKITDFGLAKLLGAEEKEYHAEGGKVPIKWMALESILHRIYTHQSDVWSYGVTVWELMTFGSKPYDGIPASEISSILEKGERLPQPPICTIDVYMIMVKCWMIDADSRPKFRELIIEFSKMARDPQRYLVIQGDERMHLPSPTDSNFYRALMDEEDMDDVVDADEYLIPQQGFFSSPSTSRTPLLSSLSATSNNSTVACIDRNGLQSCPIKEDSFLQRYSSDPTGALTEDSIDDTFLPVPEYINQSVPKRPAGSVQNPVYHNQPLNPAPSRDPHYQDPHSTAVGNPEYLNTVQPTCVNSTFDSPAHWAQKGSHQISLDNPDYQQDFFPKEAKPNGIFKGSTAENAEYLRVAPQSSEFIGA
Sequence of Ba/F3-EGFR-D770_N771insSVD cells (P00533 with tags, fused parts or gaps DUP768-770): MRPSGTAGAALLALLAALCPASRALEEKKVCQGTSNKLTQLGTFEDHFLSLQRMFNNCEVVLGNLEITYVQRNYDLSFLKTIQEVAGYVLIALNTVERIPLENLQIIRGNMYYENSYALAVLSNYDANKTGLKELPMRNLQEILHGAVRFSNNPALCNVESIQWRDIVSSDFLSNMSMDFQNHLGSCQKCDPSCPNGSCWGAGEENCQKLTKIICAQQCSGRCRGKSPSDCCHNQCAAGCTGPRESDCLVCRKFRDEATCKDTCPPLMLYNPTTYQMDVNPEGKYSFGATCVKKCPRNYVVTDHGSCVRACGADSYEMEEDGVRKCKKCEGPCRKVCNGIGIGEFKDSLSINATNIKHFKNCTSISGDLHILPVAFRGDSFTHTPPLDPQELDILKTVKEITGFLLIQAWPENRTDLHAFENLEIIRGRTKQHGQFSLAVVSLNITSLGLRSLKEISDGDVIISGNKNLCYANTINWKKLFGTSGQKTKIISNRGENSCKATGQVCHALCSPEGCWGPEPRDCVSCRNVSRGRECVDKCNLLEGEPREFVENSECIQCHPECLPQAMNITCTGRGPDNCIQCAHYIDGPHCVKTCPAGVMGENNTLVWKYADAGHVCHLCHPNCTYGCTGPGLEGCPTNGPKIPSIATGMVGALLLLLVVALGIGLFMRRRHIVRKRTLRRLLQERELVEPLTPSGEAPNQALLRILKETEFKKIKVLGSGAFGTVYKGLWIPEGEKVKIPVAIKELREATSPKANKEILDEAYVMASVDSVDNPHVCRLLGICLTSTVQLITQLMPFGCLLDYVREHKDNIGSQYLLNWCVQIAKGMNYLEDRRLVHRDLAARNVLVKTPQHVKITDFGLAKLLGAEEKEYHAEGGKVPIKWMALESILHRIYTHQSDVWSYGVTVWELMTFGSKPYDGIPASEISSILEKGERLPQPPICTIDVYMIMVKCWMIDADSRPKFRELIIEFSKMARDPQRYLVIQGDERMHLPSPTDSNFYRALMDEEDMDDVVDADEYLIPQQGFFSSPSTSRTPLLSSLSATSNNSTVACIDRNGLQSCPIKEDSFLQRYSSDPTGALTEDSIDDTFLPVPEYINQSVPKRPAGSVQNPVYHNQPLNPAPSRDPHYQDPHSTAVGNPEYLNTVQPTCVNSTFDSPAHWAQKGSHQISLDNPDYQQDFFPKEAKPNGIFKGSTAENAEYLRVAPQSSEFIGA
T2 sequence (O43683 704-1085): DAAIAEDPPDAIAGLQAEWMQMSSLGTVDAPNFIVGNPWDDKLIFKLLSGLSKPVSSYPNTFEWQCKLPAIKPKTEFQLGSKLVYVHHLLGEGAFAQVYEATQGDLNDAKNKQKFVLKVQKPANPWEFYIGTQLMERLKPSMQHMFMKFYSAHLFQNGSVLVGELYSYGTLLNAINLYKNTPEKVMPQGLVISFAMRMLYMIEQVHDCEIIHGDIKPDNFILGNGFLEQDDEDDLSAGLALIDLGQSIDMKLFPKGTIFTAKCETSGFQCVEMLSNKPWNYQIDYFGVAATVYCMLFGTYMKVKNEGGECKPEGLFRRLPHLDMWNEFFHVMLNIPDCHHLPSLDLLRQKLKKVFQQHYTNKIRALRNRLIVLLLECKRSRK

For `Cc1c(Cl)cccc1Nc1c(-c2ccncc2OCC2OCCCC2(F)F)[nH]c2c1C(=O)NCC2C` (stereo not shown) [Example 61, 3-(3-chloro-2-methyl-anilino)-2-[3-[(3,3-difluorotetrahydropyran-2-yl)methoxy]-4-pyridyl]-7-methyl-1,5,6,7-tetrahydropyrrolo[3,2-c]pyridin-4-one], the “mutEGFR (D770_N771insSVD) kinase assay IC50” value (“mutEGFR” below) [1] was 0.19 nM, the IC50 (Bub1) was 2700 nM and the GI50 [2] was 20.5 nM. For the same molecule, the GI50 (Ba/F3-EGFR-WT cells) was 534 nM.
In the case of `COc1c(Cl)cccc1Nc1c(-c2ccncc2OCC2COCCO2)[nH]c2c1C(=O)N[C@H](C)C2` (single isomer, unassigned) [Example 26], the “mutEGFR” value [1] is reported as 0.242 nM, the IC50 (Bub1) is reported as 3110 nM and the GI50 [2] is reported as 63.1 nM. For the same molecule, the GI50 (Ba/F3-EGFR-WT cells) was 587 nM.
`Cc1c(Cl)cccc1Nc1c(-c2ccncc2OC[C@@H]2CCCO2)[nH]c2c1C(=O)NCC2C` (single isomer, unassigned) [Example 60] was tested, and the “mutEGFR” value [1] was 0.603 nM, the IC50 (Bub1) was 1620 nM and the GI50 [2] was 175 nM. It also gave a GI50 (Ba/F3-EGFR-WT cells) of 1070 nM.
`COc1c(Cl)cccc1Nc1c(-c2ccncc2OC[C@@H]2CCCO2)[nH]c2c1C(=O)NCC2C` (single isomer, unassigned) [Example 31] was tested, and the “mutEGFR” value [1] was 0.119 nM, the IC50 (Bub1) was > 20000 nM and the GI50 [2] was 125 nM. It also gave a GI50 (Ba/F3-EGFR-WT cells) of 2770 nM.
With `Cc1c(Cl)cccc1Nc1c(-c2ccncc2OC[C@H]2CN(C)CCO2)[nH]c2c1C(=O)N[C@H](C)C2` [Example 106, (6R)-3-(3-chloro-2-methylanilino)-6-methyl-2-(3-{[(2R)-4-methylmorpholin-2-yl]methoxy}pyridin-4-yl)-1,5,6,7-tetrahydro-4H-pyrrolo[3,2-c]pyridin-4-one] the “mutEGFR” value [1] was 0.18 nM, the IC50 (Bub1) was 11600 nM and the GI50 [2] was 318 nM. For the same molecule, the GI50 (Ba/F3-EGFR-WT cells) was 3020 nM.
For `COc1c(Cl)cccc1Nc1c(-c2ccncc2OCC2COC(C)(C)CO2)[nH]c2c1C(=O)NC1(CCC1)C2` (stereo not shown) [Example 129, 3′-(3-chloro-2-methoxyanilino)-2′-{3-[(5,5-dimethyl-1,4-dioxan-2-yl)methoxy]pyridin-4-yl}-1′,7′-dihydrospiro[cyclobutane-1,6′-pyrrolo[3,2-c]pyridin]-4′(5′H)-one], the “mutEGFR” value [1] was 0.257 nM, the IC50 (Bub1) was 1310 nM and the GI50 [2] was 14 nM. For the same molecule, the GI50 (Ba/F3-EGFR-WT cells) was 293 nM.
`COCC(C)Oc1cnccc1-c1[nH]c2c(c1Nc1cccc(Cl)c1OC)C(=O)N[C@H](C)C2` (single isomer, unassigned) [Example 43] was tested, and the “mutEGFR” value [1] was 0.418 nM, the IC50 (Bub1) was > 20000 nM and the GI50 [2] was 219 nM. The GI50 (Ba/F3-EGFR-WT cells) was 1860 nM.
With `Cc1c(Cl)cccc1Nc1c(-c2ccncc2OCC2COCCO2)[nH]c2c1C(=O)NCC2C` (single isomer, unassigned) [Example 69, 3-(3-chloro-2-methyl-anilino)-2-[3-(1,4-dioxan-2-ylmethoxy)-4-pyridyl]-7-methyl-1,5,6,7-tetrahydropyrrolo[3,2-c]pyridin-4-one] the “mutEGFR” value [1] was 0.269 nM, the IC50 (Bub1) was 1730 nM and the GI50 [2] was 72.4 nM. For the same molecule, the GI50 (Ba/F3-EGFR-WT cells) was 2180 nM.
`Cc1c(Cl)cccc1Nc1c(-c2ccncc2OC[C@@H]2CCCO2)[nH]c2c1C(=O)NCC2C` (single isomer, unassigned) [Example 59] was tested, and the “mutEGFR” value [1] was 0.285 nM, the IC50 (Bub1) was 16400 nM and the GI50 [2] was 41.9 nM. The GI50 (Ba/F3-EGFR-WT cells) was 609 nM.
In the case of `CCc1c(Cl)cccc1Nc1c(-c2ccncc2OC[C@@H]2COCCO2)[nH]c2c1C(=O)N[C@H](C)C2` [Example 110, (6R)-3-(3-chloro-2-ethylanilino)-2-(3-{[(2S)-1,4-dioxan-2-yl]methoxy}pyridin-4-yl)-6-methyl-1,5,6,7-tetrahydro-4H-pyrrolo[3,2-c]pyridin-4-one], the “mutEGFR” value [1] is reported as 0.333 nM, the IC50 (Bub1) is reported as 1210 nM and the GI50 [2] is reported as 40.3 nM. For the same molecule, the GI50 (Ba/F3-EGFR-WT cells) was 780 nM.
